Here are results for 27 compounds from PubChem BioAssay (NCI).

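Step 1: Grow cells in 96-well plates. Step 2: Expose to compound for 48 hours at 5 concentrations. Step 3: Interpolate endpoints linearly; if unreached, use highest concentration. The concentration for full growth arrest is given as TGI.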

Test in all cases: inhibition of tumour cell growth, NCI panel, 48 h
The subject of test [1] is TK-10 renal.
For test [2], the system named is HS 578T breast.
The test system of test [3] is A549 NSCLC.
Test [4] has as its system MDA-MB-435.
The test system of test [5] is HCC-2998 colon.
Test [6] has as its system SF-268 CNS.
Test [7] relates to SF-295 CNS.
Test [8] relates to RPMI-8226 leukemia.
Test [9] concerns SW-620 colon.
For test [10], the system named is SN12C renal.

Consider `O=c1[nH]nc(-c2ccccc2)n1/N=C/c1cccc([N+](=O)[O-])c1`, for which the TGI in test [1], in [2], in test [3], in [4], in test [5] and in test [6] was over 100 µM each time. Also, the TGI in test [7], in [8], in test [9] and in [10] was over 100 µM in each case.
Take `COc1c2c(nc3ccccc13)-c1cc(C(CC(=O)OC(C)(C)C)C(=O)OC(C)C)c(CO)c(=O)n1C2` (configuration not stated): the TGI in [1], in [2], in test [3], in test [4], in test [5] and in test [6] was over 100 µM in each case. The TGI in test [7], in [8], in test [9] and in test [10] was over 100 µM throughout.
Consider `Cc1ccc(O)c(C2=CC3=NNC(=O)C3C(c3cccc(Cl)c3)C2)c1` (configuration not stated), for which the TGI in test [1] is 57.5 µM; in test [2] it was over 100 µM; in [3], over 100 µM; in test [4], over 100 µM; in test [5] it was 44.5 µM; in test [6] it was over 100 µM. In addition, the TGI in test [7] is over 100 µM; in test [8], 75.9 µM; in [9], over 100 µM; in test [10], over 100 µM.
For the compound `CO/N=C\c1ccc2c(c1)Sc1ccccc1O2`, the TGI in test [1] was over 100 µM; in [2], 97.3 µM; in test [3], over 100 µM; in test [4], over 100 µM; in test [5], over 100 µM; in test [6] it was over 100 µM. In addition, the TGI in test [7], in [8], in [9] and in test [10] was over 100 µM each time.
For `Cn1c(=Nc2ccc(Cl)cc2)sc2ccccc21`, the TGI in [1] is 98.1 µM; in test [2], over 100 µM; in test [3], over 100 µM; in [4], over 100 µM; in test [5] it was 68.3 µM; in test [6], over 100 µM. Moreover, the TGI in test [7], in [8], in [9] and in test [10] was over 100 µM each time.
With `Cc1nc2ccc(S(=O)(=O)NS(=O)(=O)c3ccc(-c4ccccc4)cc3)cc2c(=O)n1NS(=O)(=O)c1ccc(-c2ccccc2)cc1`, the TGI in [1], in test [2], in [3], in test [4], in [5] and in test [6] was over 100 µM throughout. The TGI in test [7], in test [8], in test [9] and in [10] was over 100 µM in each case.
Turning to `C=C1C[C@@H](O)[C@@H](Br)C(C)(C)[C@@]12C=CC(=O)CC2`, the TGI in [1], in test [2], in [3], in test [4], in [5] and in test [6] was over 100 µM each time. Also, the TGI in [7], in test [8], in test [9] and in [10] was over 100 µM each time.
With `COC(=O)CCC1(CCC(=O)OC)CCCCCCC(CCC(=O)OC)(CCC(=O)OC)C(=O)C1=O`, the TGI in test [1], in [2], in test [3], in test [4], in test [5] and in test [6] was over 100 µM throughout. Besides, the TGI in test [7], in [8] and in test [10] was over 100 µM each time.
Take `CCOC(=O)C(=CNc1ccc(N(C2=NCC(C)S2)c2ccc(F)c(Cl)c2)cc1)C(=O)OCC` (configuration not stated): the TGI stood at 57.1 µM in test [1]; 55.3 µM in [2]; 86.1 µM in test [3]; 55.9 µM in test [4]; 32 µM in [5]; 55.3 µM in [6]. For the same compound, the TGI was determined as 64.2 µM in [7], 72.8 µM in test [8], 57.1 µM in [9] and 36.2 µM in test [10].
For `CCC(C)C(N)C(=O)N/N=C\c1c2c(nc3ccccc13)-c1cc3c(c(=O)n1C2)COC(=O)[C@]3(O)CC` (some centres not stated), the TGI in test [1] is over 100 µM; in test [2], over 100 µM; in [3] it was 14.2 µM; in test [4] it was over 81 µM; in [5], 15.2 µM; in test [7], 1.37 µM. Also, the TGI in test [8] is 11.4 µM; in [9] it was over 43.7 µM; in [10], over 32.5 µM.
In the case of `COc1cc(/C=C2\C[C@H]3[C@@H]4CCC5=CC(=O)CC[C@]5(C)[C@H]4CC[C@]3(C)C2=O)cc(OC)c1OC`, the TGI in test [1] is over 100 µM; in test [2] it was over 100 µM; in test [3], over 100 µM; in test [4], over 39.4 µM; in test [5] it was over 100 µM; in [6], over 100 µM. For the same compound, the TGI in test [7] is over 100 µM; in [8], 9.7 µM; in [9], over 100 µM; in test [10] it was over 100 µM.
Turning to `O=C(Cn1cc(Br)c(=O)[nH]c1=O)c1ccc(-c2ccccc2)cc1`, the TGI in test [1] is over 100 µM; in test [2] it was over 100 µM; in test [3], over 100 µM; in test [4], over 55.3 µM; in [5] it was over 28.7 µM; in test [6], 15.8 µM. The TGI in [7], in [8], in test [9] and in [10] was over 100 µM each time.
As to `COc1ccc(-c2oc3cc(OC)c(OC)c(O)c3c(=O)c2OC)cc1`, the TGI in test [1] is over 100 µM; in test [2], 72.3 µM; in test [3], over 100 µM; in test [4] it was over 100 µM; in test [5], over 100 µM; in test [6] it was 98.4 µM. In addition, the TGI in [7] is 46.9 µM; in [8] it was over 100 µM; in [9] it was over 100 µM; in [10] it was over 100 µM.
In the case of `O=C1/C(=C\c2ccc(Br)cc2)CCCc2ccccc21`, the TGI in test [1] was 35.4 µM; in test [2], 49 µM; in test [3] it was over 100 µM; in test [4], 61.5 µM; in test [5], 30.1 µM; in test [6] it was 37.1 µM. In addition, the TGI in [7] came out at 52.9 µM; in [8] it was 48.8 µM; in [9], 43 µM; in test [10] it was 32.1 µM.
For `O=C(c1cccs1)c1nccc2c1cnc1ccccc12`, the TGI is over 100 µM in test [1]; over 100 µM in test [2]; over 100 µM in [3]; over 100 µM in test [4]; over 100 µM in test [5]; 98.6 µM in test [6]. Also, the TGI in test [7], in test [8], in [9] and in test [10] was over 100 µM throughout.
As to `CC1(C)OCC(C2OC3OC(C)(C)OC3C2c2ccccc2)O1` (configuration not stated), the TGI in [1] is over 100 µM; in [2] it was 64.4 µM; in test [3], over 100 µM; in test [4], 93.5 µM; in test [5] it was over 100 µM; in test [6] it was over 100 µM. In addition, the TGI in test [7], in [8], in [9] and in [10] was over 100 µM each time.
Turning to `Cc1ccc(S(=O)C[C@](NC(=O)OCc2ccccc2)(Sc2ccccc2)C(F)F)cc1` (some centres not stated), the TGI is 42.6 µM in [1]; 94.3 µM in [2]; over 100 µM in test [3]; 79.6 µM in test [4]; 35.9 µM in [5]; 63.4 µM in test [6]. Besides, the figures for the TGI in test [7], in [8] and in test [9] were 34.4 µM, 45 µM and 40.6 µM, respectively.
Consider `C[C@@H](C[C@H]1OC(C)(C)O[C@@H]1C(C)(C)O)[C@H]1CC=C2[C@]3(C)[C@H](O)C[C@H]4C(C)(C)[C@H](O)CC[C@]4(C)[C@H]3CC[C@]21C`, for which the TGI in test [1] was 17.8 µM; in test [2] it was 16.6 µM; in [3] it was 15.2 µM; in test [4], 17.7 µM; in test [5], 15.8 µM; in test [6], 31.4 µM. Further, the TGI is 18.2 µM in test [7], 12.8 µM in [8], 19.4 µM in test [9] and 6.51 µM in [10].
With `Cc1ccc2nc3n[nH]c(N)c3nc2c1`, the TGI in test [1], in [2], in test [3], in [4], in [5] and in [6] was over 100 µM throughout. The TGI in [7], in [8], in test [9] and in [10] was over 100 µM in each case.
On to `O=[N+]([O-])c1ccc(C2ON=C(c3ccccc3)N2C23CC4CC(CC(C4)C2)C3)cc1` (configuration not stated), for which the TGI in test [1], in [2], in test [3], in test [4], in test [5] and in test [6] was over 10 µM each time. Moreover, the TGI in test [7], in test [8], in test [9] and in test [10] was over 10 µM throughout.
On to `N#Cc1c2ccc([N+](=O)[O-])cc2c(=O)n2c1[nH]c1ccc(C(F)(F)F)cc12`, for which the TGI in test [1], in [2], in test [3], in test [4], in test [5] and in test [6] was over 100 µM throughout. In addition, the TGI in test [7] is 66.1 µM; in test [8], 13.6 µM; in test [9], over 100 µM; in test [10], over 100 µM.
On to `Clc1ccc2c(NCCCCN3OC3c3ccccc3)ccnc2c1` (configuration not stated), for which the TGI turned out to be 22 µM in [1]; 35.9 µM in test [2]; 19.2 µM in [3]; 14.5 µM in test [4]; 11.1 µM in [5]; 27.1 µM in test [6]. Also, the TGI in test [7] was 26.1 µM; in [8], 5.98 µM; in test [9], 18.5 µM; in [10], 24.7 µM.
For `COc1ccc(C2=[S+]C(c3ccccc3)(c3ccccc3)c3ccccc32)cc1`, the TGI in test [1] is 73.3 µM; in test [2] it was 68 µM; in [3], over 100 µM; in test [4] it was 41.1 µM; in [5], over 100 µM; in [6] it was over 100 µM. For the same compound, the TGI in test [7] is 88.8 µM; in [8] it was 53.9 µM; in test [9] it was over 100 µM; in test [10] it was 37.1 µM.
On to `CCOC(=O)c1cn2c(n1)sc1cc(OC)ccc12`, for which the TGI in test [1] was over 100 µM; in test [2] it was 81.2 µM; in test [3], over 100 µM; in [4], 3.48 µM; in test [5] it was over 100 µM; in test [6] it was over 100 µM. The TGI is over 65.5 µM in test [7], over 100 µM in test [8], over 100 µM in [9] and over 100 µM in test [10].
With `CC(O)c1cc2c(s1)C(=O)c1c(C(C)O)csc1C2=O` (configuration not stated), the TGI was determined as 1.79 µM in test [1]; 0.804 µM in test [2]; 0.355 µM in test [3]; 0.183 µM in [4]; 1.07 µM in test [5]; 1.32 µM in [6]. Further, the TGI came out at 0.255 µM in test [7], 0.801 µM in test [8], 0.833 µM in test [9] and 0.349 µM in test [10].
Regarding `NC(=O)CSc1c2cc(O)ccc2nc2ccc(O)cc12`, the TGI in test [1], in test [2], in test [3], in [4], in test [5] and in test [6] was over 10 µM throughout. The TGI in test [7], in test [8], in [9] and in [10] was over 10 µM each time.
As for `N#Cc1c(Cl)c2cccnc2n2c1nc1ccccc12`, the TGI in [1] is 3.09 µM; in [2] it was 10.5 µM; in [3], 18.6 µM; in test [4], 13.5 µM; in test [5], 10.7 µM; in [6] it was 8.4 µM. Also, the TGI in [7] worked out at 35.9 µM; in test [8] it was 5.67 µM; in test [9], 4.59 µM; in [10], 3.7 µM.
